Structures can show the parent of a compound that is named as a salt.

These results are taken from patent US4868321A, “Isothiocyanate intermediates” (FMC Corporation, priority 1988, dated 1989).

Holding throughout (assay type): in vivo
The subject of test [1] is Soybean. Description: Preemergence Herbicidal Activity, Soybean. The note with it: Glycine max, pre-emergence; for plant injury at 250 g/ha: 0.25 kg/ha; for plant injury at 2000 g/ha: 2.0 kg/ha. In a few lines: (§1)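 Application rate is expressed per hectare in kilograms. Values are percent control.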
Test [2] relates to Morningglory. Description: Preemergence Herbicidal Activity, Morningglory. The note with it: Ipomoea, pre-emergence; for pest or weed control at 250 g/ha: 0.25 kg/ha; for pest or weed control at 2000 g/ha: 2.0 kg/ha. The procedure, abridged: (§2)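 Test compounds were applied, usually as solutions in 50/50 acetone/water, to plants postemergence or to soil preemergence. Rates are given in kg/ha, and activity is scored as percent control (% C).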

Test [3] relates to Soybean. As to the kind of experiment: Postemergence Herbicidal Activity, Soybean. To be noted: Glycine max, post-emergence; for plant injury at 250 g/ha: 0.25 kg/ha; for plant injury at 2000 g/ha: 2.0 kg/ha. The procedure, abridged: as §1
For test [4], the system named is Field Bindweed. Description: Postemergence Herbicidal Activity, Field Bindweed. The note with it: post-emergence; for pest or weed control at 250 g/ha: 0.25 kg/ha; for pest or weed control at 2000 g/ha: 2.0 kg/ha. In a few lines: as §2
Test [5] has as its system Field Bindweed. Description: Preemergence Herbicidal Activity, Field Bindweed. To be noted: pre-emergence; for pest or weed control at 250 g/ha: 0.25 kg/ha; for pest or weed control at 2000 g/ha: 2.0 kg/ha. The procedure, abridged:
as §2

Test [6] relates to Barnyardgrass. Description: Preemergence Herbicidal Activity, Barnyardgrass. The note with it: Echinochloa crus-galli, pre-emergence; for pest or weed control at 250 g/ha: 0.25 kg/ha; for pest or weed control at 2000 g/ha: 2.0 kg/ha. In a few lines:
(§3)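 Kilogram-per-hectare application rates; outcome scored by percent control of treated plants.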

In test [7] the test system is Green Foxtail. Description: Postemergence Herbicidal Activity, Green Foxtail. The note with it: Setaria viridis, post-emergence; for pest or weed control at 250 g/ha: 0.25 kg/ha; for pest or weed control at 2000 g/ha: 2.0 kg/ha. In a few lines:
as §3

The subject of test [8] is Wheat. Description: Preemergence Herbicidal Activity, Wheat. To be noted: Triticum aestivum, pre-emergence; for plant injury at 250 g/ha: 0.25 kg/ha; for plant injury at 2000 g/ha: 2.0 kg/ha. The procedure, abridged:
as §1

Test [9] concerns Velvetleaf. As to the kind of experiment: Postemergence Herbicidal Activity, Velvetleaf. The note with it: Abutilon theophrasti, post-emergence; for pest or weed control at 250 g/ha: 0.25 kg/ha; for pest or weed control at 2000 g/ha: 2.0 kg/ha. In a few lines: as §2
Test [10] has as its system Barnyardgrass. As to the kind of experiment: Postemergence Herbicidal Activity, Barnyardgrass. The note with it: Echinochloa crus-galli, post-emergence; for pest or weed control at 250 g/ha: 0.25 kg/ha; for pest or weed control at 2000 g/ha: 2.0 kg/ha. In a few lines:
as §3

Test [11] deals with Cotton. As to the kind of experiment: Preemergence Herbicidal Activity, Cotton. The note with it: Gossypium hirsutum, pre-emergence; for plant injury at 250 g/ha: 0.25 kg/ha; for plant injury at 2000 g/ha: 2.0 kg/ha. The procedure, abridged:
as §2

In test [12] the test system is Wheat. As to the kind of experiment: Postemergence Herbicidal Activity, Wheat. The note with it: Triticum aestivum, post-emergence; for plant injury at 250 g/ha: 0.25 kg/ha; for plant injury at 2000 g/ha: 2.0 kg/ha. The procedure, abridged: as §1
Test [13] relates to Rice. Description: Preemergence Herbicidal Activity, Rice. To be noted: Oryza sativa, pre-emergence; for plant injury at 250 g/ha: 0.25 kg/ha; for plant injury at 2000 g/ha: 2.0 kg/ha. The procedure, abridged: as §1
The subject of test [14] is Morningglory. Description: Postemergence Herbicidal Activity, Morningglory. The note with it: Ipomoea, post-emergence; for pest or weed control at 250 g/ha: 0.25 kg/ha; for pest or weed control at 2000 g/ha: 2.0 kg/ha. The procedure, abridged: as §2
The test system of test [15] is Green Foxtail. Description: Preemergence Herbicidal Activity, Green Foxtail. To be noted: Setaria viridis, pre-emergence; for pest or weed control at 250 g/ha: 0.25 kg/ha; for pest or weed control at 2000 g/ha: 2.0 kg/ha. The procedure, abridged: as §3
The test system of test [16] is Field Corn. Description: Preemergence Herbicidal Activity, Field Corn. To be noted: Zea mays, pre-emergence; for plant injury at 250 g/ha: 0.25 kg/ha; for plant injury at 2000 g/ha: 2.0 kg/ha. In a few lines:
as §1

In test [17] the test system is Velvetleaf. Description: Preemergence Herbicidal Activity, Velvetleaf. To be noted: Abutilon theophrasti, pre-emergence; for pest or weed control at 250 g/ha: 0.25 kg/ha; for pest or weed control at 2000 g/ha: 2.0 kg/ha. In a few lines:
as §2

For test [18], the system named is Johnsongrass. As to the kind of experiment: Postemergence Herbicidal Activity, Johnsongrass. The note with it: Sorghum halepense, post-emergence; for pest or weed control at 250 g/ha: 0.25 kg/ha; for pest or weed control at 2000 g/ha: 2.0 kg/ha. The procedure, abridged:
as §3

Test [19] has as its system Field Corn. As to the kind of experiment: Postemergence Herbicidal Activity, Field Corn. To be noted: Zea mays, post-emergence; for plant injury at 250 g/ha: 0.25 kg/ha; for plant injury at 2000 g/ha: 2.0 kg/ha. The procedure, abridged:
as §1

Test [20] relates to Cotton. Description: Postemergence Herbicidal Activity, Cotton. To be noted: Gossypium hirsutum, post-emergence; for plant injury at 250 g/ha: 0.25 kg/ha; for plant injury at 2000 g/ha: 2.0 kg/ha. The procedure, abridged:
as §2

Test [21] deals with Johnsongrass. Description: Preemergence Herbicidal Activity, Johnsongrass. The note with it: Sorghum halepense, pre-emergence; for pest or weed control at 250 g/ha: 0.25 kg/ha; for pest or weed control at 2000 g/ha: 2.0 kg/ha. The procedure, abridged: as §3
For test [22], the system named is Rice. As to the kind of experiment: Postemergence Herbicidal Activity, Rice. To be noted: Oryza sativa, post-emergence; for plant injury at 250 g/ha: 0.25 kg/ha; for plant injury at 2000 g/ha: 2.0 kg/ha. In a few lines:
as §1

By plant injury is commonly meant the degree to which the test organism was suppressed or injured, in per cent. A lower plant injury goes with a weak effect. What is called pest or weed control is the degree to which the test organism was suppressed or injured, in per cent. Low values mean weak suppression, high ones strong suppression. Turning to `O=c1n(CCCF)nnn1-c1cc(NS(=O)(=O)C(F)(F)F)c(Cl)cc1F` [Compound 30, 1-[4-Chloro-2-fluoro-5-(N-trifluoromethylsulfonylamino)phenyl]-1,4-dihydro-4-(3-fluoropropyl)-5H-tetrazol-5-one], the plant injury at 250 g/ha came out at 10% in the test with Soybean [1]; 40% with Soybean [3]; 0% in the test on Wheat [8]; 50% in the test on Cotton [11]; 10% in the test on Wheat [12]; 20% with Rice [13]. Moreover, the plant injury at 250 g/ha was determined as 10% in the test with Field Corn [16], 30% with Field Corn [19], 90% in the test on Cotton [20] and 10% in the test on Rice [22]. The pest or weed control at 250 g/ha with Morningglory [2] was 60%; with Field Bindweed [4], 70%; in the test on Field Bindweed [5], 95%; in the test on Barnyardgrass [6] it was 0%; in the test with Green Foxtail [7] it was 0%; with Velvetleaf [9], 100%. In addition, the pest or weed control at 250 g/ha with Barnyardgrass [10] amounted to 10%; in the test on Morningglory [14], 80%; in the test on Green Foxtail [15], 10%; in the test with Velvetleaf [17], 100%; with Johnsongrass [18], 0%; in the test with Johnsongrass [21] it was 60%.
Regarding `O=c1n(CCCF)nnn1-c1cc(NS(=O)(=O)C(F)(F)F)c(Cl)cc1F` [Compound 32, 1-[4-Chloro-2-fluoro-5-(N--trifluoromethylsulfonylamino)phenyl]-1,4-dihydro-4-(3-fluoropropyl)-5H--tetrazol-5-one potassium salt], the plant injury at 2000 g/ha in the test on Soybean [1] is 40%; in the test with Soybean [3], 100%; with Wheat [8] it was 10%; in the test with Cotton [11], 100%; with Wheat [12], 40%; with Rice [13], 95%. Moreover, the plant injury at 2000 g/ha is 50% with Field Corn [16], 70% with Field Corn [19], 100% in the test with Cotton [20] and 40% with Rice [22]. Also, the pest or weed control at 2000 g/ha in the test on Morningglory [2] was 100%; with Field Bindweed [4], 100%; with Field Bindweed [5], 100%; in the test on Barnyardgrass [6] it was 95%; in the test on Green Foxtail [7], 40%; in the test with Velvetleaf [9], 100%. The pest or weed control at 2000 g/ha in the test with Barnyardgrass [10] is 70%; in the test with Morningglory [14] it was 100%; with Green Foxtail [15] it was 60%; in the test with Velvetleaf [17], 100%; in the test on Johnsongrass [18], 70%; with Johnsongrass [21] it was 80%.
Take `CS(=O)(=O)Nc1cc(-n2nnn(CCCF)c2=O)c(F)cc1Br` [Compound 33, 1-[4-Bromo-2-fluoro-5-(N--methylsulfonylamino)phenyl]-1,4-dihydro-(3-fluoropropyl)-5H--tetrazol-5-one]: the plant injury at 250 g/ha in the test with Soybean [1] worked out at 10%; in the test with Soybean [3], 70%; in the test on Wheat [8], 20%; with Cotton [11] it was 100%; with Wheat [12] it was 40%; with Rice [13] it was 80%. Moreover, the plant injury at 250 g/ha is 40% in the test with Field Corn [16], 30% in the test with Field Corn [19], 100% with Cotton [20] and 80% with Rice [22]. The pest or weed control at 250 g/ha came out at 100% with Morningglory [2]; 100% in the test on Field Bindweed [4]; 100% in the test on Field Bindweed [5]; 95% in the test on Barnyardgrass [6]; 100% in the test on Green Foxtail [7]; 100% in the test with Velvetleaf [9]. Further, the pest or weed control at 250 g/ha was found to be 80% with Barnyardgrass [10]; 100% in the test on Morningglory [14]; 70% with Green Foxtail [15]; 100% in the test with Velvetleaf [17]; 70% in the test with Johnsongrass [18]; 70% in the test with Johnsongrass [21].
Consider `O=c1n(CCCF)nnn1-c1cc(NS(=O)(=O)C(F)(F)F)c(Cl)cc1Cl` [Compound 35, 1-[2,4-Dichloro-5-(N--trifluoromethylsulfonylamino)phenyl]-4,5-dihydro-4-(3-fluoropropyl)-5H--tetrazol-5-one], for which the plant injury at 4000 g/ha in the test on Soybean [1] (4.0 kg/ha) was 80%; in the test with Soybean [3] (4.0 kg/ha), 100%; in the test on Wheat [8] (4.0 kg/ha) it was 70%; in the test on Cotton [11] (4.0 kg/ha), 100%; with Wheat [12] (4.0 kg/ha), 40%; in the test on Rice [13] (4.0 kg/ha) it was 95%. For the same compound, the plant injury at 4000 g/ha in the test with Field Corn [16] (4.0 kg/ha) was determined as 50%; in the test with Field Corn [19] (4.0 kg/ha), 70%; with Cotton [20] (4.0 kg/ha), 100%; in the test with Rice [22] (4.0 kg/ha) it was 80%. Moreover, the pest or weed control at 4000 g/ha in the test on Morningglory [2] (4.0 kg/ha) was 100%; with Field Bindweed [4] (4.0 kg/ha), 95%; with Field Bindweed [5] (4.0 kg/ha), 100%; in the test with Barnyardgrass [6] (4.0 kg/ha), 90%; in the test on Green Foxtail [7] (4.0 kg/ha), 100%; in the test with Velvetleaf [9] (4.0 kg/ha), 100%. Further, the pest or weed control at 4000 g/ha in the test with Barnyardgrass [10] (4.0 kg/ha) was determined as 70%; with Morningglory [14] (4.0 kg/ha), 100%; in the test on Green Foxtail [15] (4.0 kg/ha) it was 100%; in the test on Velvetleaf [17] (4.0 kg/ha), 100%; with Johnsongrass [18] (4.0 kg/ha) it was 90%; in the test with Johnsongrass [21] (4.0 kg/ha), 95%.
With `CS(=O)(=O)N(c1cc(-n2nnn(CCCF)c2=O)c(Cl)cc1F)S(C)(=O)=O` [Compound 36, 1-[2-Chloro-4-fluoro-5-[bis-(N--methylsulfonyl)amino]phenyl]-4,5-dihydro-4-(3-fluoropropyl)-5H--tetrazol-5-one], the plant injury at 2000 g/ha was found to be 0% in the test on Soybean [1]; 10% in the test with Soybean [3]; 0% in the test with Wheat [8]; 70% with Cotton [11]; 10% in the test with Wheat [12]; 0% in the test on Rice [13]. Moreover, the plant injury at 2000 g/ha in the test on Field Corn [16] turned out to be 70%; with Field Corn [19], 10%; in the test on Cotton [20] it was 70%; in the test with Rice [22] it was 10%. Further, the pest or weed control at 2000 g/ha was determined as 90% with Morningglory [2]; 60% in the test with Field Bindweed [4]; 100% in the test with Field Bindweed [5]; 70% in the test with Barnyardgrass [6]; 50% in the test on Green Foxtail [7]; 90% in the test with Velvetleaf [9]. In addition, the pest or weed control at 2000 g/ha amounted to 50% in the test on Barnyardgrass [10]; 80% in the test on Morningglory [14]; 50% in the test with Green Foxtail [15]; 95% with Velvetleaf [17]; 50% with Johnsongrass [18]; 40% in the test on Johnsongrass [21].
